Results published in US6468476B1, “Methods for using-co-regulated genesets to enhance detection and classification of gene expression patterns” (Rosetta Inpharmatics, Inc., priority 1998, dated 2002).

Test system: genes regulated by the Gcn4 transcription factor
Assay: Transcript response (DNA microarray) to a titration series of FK506, genes of the Gcn4 geneset
Assay type: cell-based, Saccharomyces cerevisiae
Protocol: Yeast (Saccharomyces cerevisiae, Strain YPH499, see, Sikorski and Hieter, 1989, A system of shuttle vectors and yeast host strains designated for efficient manipulation of DNA in Saccharomyces cerevisiae, Genetics 122:19-27) cells were grown in YAPD at 30° C. to an OD600 of 1.0 (±0.2), and total RNA prepared by breaking cells in phenol/chloroform and 0.1% SDS by standard procedures (Ausubel et al., 1995, Current Protocols in Molecular Biology, Greene Publishing and Wiley-Interscience, New York, Ch. 13). Poly(A)^+ RNA was selected by affinity chromatography on oligo-dT cellulose (New England Biolabs) essentially as described in Sambrook et al. (Molecular Cloning—A Laboratory Manual (2nd Ed.), Vol. 1, Cold Spring Harbor Laboratory, Cold Spring Harbor, N.Y., 1989). First strand cDNA synthesis was carried out with 2 μg poly(A)^+ RNA and SuperScript™ II reverse transcriptase (Gibco-BRL) according to the manufacturer's instructions with the following modifications. Deoxyribonucleotides were present at the following concentrations: dA, dG, and dC at 500 μM each, dT at 100 μM and either Cy3-dUTP or Cy5-dUTP (Amersham) at 100 μM. cDNA synthesis reactions were carried out at 42-44° C. for 90 minutes, after which RNA was degraded by the addition of 2 units of RNAse H, and the cDNA products were purified by two successive rounds of centrifugation dialysis using MICROCON-30 microconcentrators (Amicon) according to the manufacturer's recommendations.
Double-stranded DNA polynucleotides corresponding in sequence to each ORF in the S. cerevisiae genome encoding a polypeptide greater than 99 amino acids (based on the published yeast genomic sequence, e.g., Goffeau et al., 1996, Science 274:546-567) are made by polymerase chain reaction (PCR) amplification of yeast genomic DNA. Two PCR primers are chosen internal to each of the ORFs according to two criteria: (i) the amplified fragments are 300-800 bp and (ii) none of the fragments have a section of more than 10 consecutive nucleotides of sequence in common. Computer programs are used to aid in the design of the PCR primers. Amplification is carried out in 96 well microtitre plates. The resulting DNA fragments are printed onto glass microscope slides using the method of Shalon et al., 1996, Genome Research 6:639-645.
Fluorescently-labeled cDNAs (2-6 μg) are resuspended in 4×SSC plus 1 μg/μl tRNA as carrier and filtered using […] filters (Millipore, Bedford, Mass.). SDS is added to 0.3%, prior to heating to 100° C. for 2 minutes. Probes are cooled and immediately hybridized to the microarrays produced as described in Example 6.2, for 4 hours at 65° C. Non-hybridized probe is removed by washing in 1×SSC plus 0.1% SDS at ambient temperature for 1-2 minutes. Microarrays are scanned with a fluorescence laser-scanning device as previously described (Schena et al., 1995, Science 270:467-470; Schena et al., 1995, Proc. Natl. Acad. Sci. USA 93:[…]) and the results (including the positions of perturbations) are recorded.
Geneset number 3 in the clustering analysis result of FIG. 6 involves genes regulated by the Gcn4 transcription factor. This was verified via the literature and via multiple sequence alignment analysis of the regulatory regions 5′ to the individual genes (Stormo and Hartzell, 1989, Identifying protein binding sites from unaligned DNA fragments, Proc Natl Acad Sci 86:1183-1187; Hertz and Stormo, 1995, Identification of consensus patterns in unaligned DNA and protein sequences: a large-deviation statistical basis for penalizing gaps, Proc of 3rd Intl Conf on Bioinformatics and Genome Research, Lim and Cantor, eds., World Scientific Publishing Co., Ltd. Singapore, pp. 201-216). […] These 20 were used to define a geneset. Response profiles to a titration series of the drug FK506, which is known to hit this pathway at higher concentrations, were projected onto this geneset. […]

SMILES: C=CC[C@@H]1/C=C(\C)C[C@H](C)C[C@H](OC)[C@H]2O[C@@](O)(C(=O)C(=O)N3CCCC[C@H]3C(=O)O[C@H](/C(C)=C/[C@@H]3CC[C@@H](O)[C@H](OC)C3)[C@H](C)[C@@H](O)CC1=O)[C@H](C)C[C@@H]2OC [FK506]
- Geneset Average response (projected response of the 20-gene Gcn4 geneset) (FK506 0.1 μg/ml): 0.1728 standard deviations of Log10(Expression Ratio)
- Response of gene ARG1 (FK506 0.1 μg/ml): 0.2083 standard deviations of Log10(Expression Ratio)
- Response of gene ARG4 (FK506 0.1 μg/ml): 0.3585 standard deviations of Log10(Expression Ratio)
- Response of gene ARG5,6 (FK506 0.1 μg/ml): 0.1162 standard deviations of Log10(Expression Ratio)
- Response of gene ECM13 (FK506 0.1 μg/ml): 0.1269 standard deviations of Log10(Expression Ratio)
- Response of gene HIS3 (FK506 0.1 μg/ml): −0.3719 standard deviations of Log10(Expression Ratio)
- Response of gene HIS5 (FK506 0.1 μg/ml): 0.0292 standard deviations of Log10(Expression Ratio)
- Response of gene MET16 (FK506 0.1 μg/ml): 0.0225 standard deviations of Log10(Expression Ratio)
- Response of gene NCE3 (FK506 0.1 μg/ml): 0.0371 standard deviations of Log10(Expression Ratio)
- Response of gene PCL5 (FK506 0.1 μg/ml): 0.1418 standard deviations of Log10(Expression Ratio)
- Response of gene SNO1 (FK506 0.1 μg/ml): −0.2899 standard deviations of Log10(Expression Ratio)
- Response of gene SNZ1 (FK506 0.1 μg/ml): −0.7223 standard deviations of Log10(Expression Ratio)
- Response of gene SSU1 (FK506 0.1 μg/ml): 0.6257 standard deviations of Log10(Expression Ratio)
- Response of gene YBR047W (FK506 0.1 μg/ml): 0.0781 standard deviations of Log10(Expression Ratio)
- Response of gene YER024W (FK506 0.1 μg/ml): 0.1985 standard deviations of Log10(Expression Ratio)
- Response of gene YGL117W (FK506 0.1 μg/ml): 0.6309 standard deviations of Log10(Expression Ratio)
- Response of gene YGL184C (FK506 0.1 μg/ml): 0.0654 standard deviations of Log10(Expression Ratio)
- Response of gene YHR029C (FK506 0.1 μg/ml): −0.031 standard deviations of Log10(Expression Ratio)
- Response of gene YMR195W (FK506 0.1 μg/ml): 0.7615 standard deviations of Log10(Expression Ratio)
- Geneset Average response (projected response of the 20-gene Gcn4 geneset) (FK506 0.31 μg/ml): 0.6753 standard deviations of Log10(Expression Ratio)
- Response of gene ARG1 (FK506 0.31 μg/ml): 0.3436 standard deviations of Log10(Expression Ratio)
- Response of gene ARG4 (FK506 0.31 μg/ml): 0.3508 standard deviations of Log10(Expression Ratio)
- Response of gene ARG5,6 (FK506 0.31 μg/ml): 0.2722 standard deviations of Log10(Expression Ratio)
- Response of gene ARO3 (FK506 0.31 μg/ml): −0.1371 standard deviations of Log10(Expression Ratio)
- Response of gene ECM13 (FK506 0.31 μg/ml): 0.2197 standard deviations of Log10(Expression Ratio)
- Response of gene HIS3 (FK506 0.31 μg/ml): 0.1282 standard deviations of Log10(Expression Ratio)
- Response of gene HIS5 (FK506 0.31 μg/ml): 0.2175 standard deviations of Log10(Expression Ratio)
- Response of gene MET16 (FK506 0.31 μg/ml): −0.6269 standard deviations of Log10(Expression Ratio)
- Response of gene NCE3 (FK506 0.31 μg/ml): 0.1668 standard deviations of Log10(Expression Ratio)
- Response of gene PCL5 (FK506 0.31 μg/ml): 0.2767 standard deviations of Log10(Expression Ratio)
- Response of gene SNO1 (FK506 0.31 μg/ml): 0.0244 standard deviations of Log10(Expression Ratio)
- Response of gene SNZ1 (FK506 0.31 μg/ml): 0.0244 standard deviations of Log10(Expression Ratio)
- Response of gene SSU1 (FK506 0.31 μg/ml): 0.6655 standard deviations of Log10(Expression Ratio)
- Response of gene YBR047W (FK506 0.31 μg/ml): 0.1553 standard deviations of Log10(Expression Ratio)
- Response of gene YER024W (FK506 0.31 μg/ml): −0.0419 standard deviations of Log10(Expression Ratio)
- Response of gene YGL117W (FK506 0.31 μg/ml): 0.6768 standard deviations of Log10(Expression Ratio)
- Response of gene YGL184C (FK506 0.31 μg/ml): −0.0207 standard deviations of Log10(Expression Ratio)
- Response of gene YHR029C (FK506 0.31 μg/ml): 0.2438 standard deviations of Log10(Expression Ratio)
- Response of gene YMR195W (FK506 0.31 μg/ml): 0.3323 standard deviations of Log10(Expression Ratio)
- 'Geneset' response, significance (FK506 1.6 μg/ml): > 3 sigrna
- Geneset Average response (projected response of the 20-gene Gcn4 geneset) (FK506 1.6 μg/ml): 3.3045 standard deviations of Log10(Expression Ratio)
- Response of gene ARG1 (FK506 1.6 μg/ml): 3.1765 standard deviations of Log10(Expression Ratio)
- Response of gene ARG4 (FK506 1.6 μg/ml): 1.6674 standard deviations of Log10(Expression Ratio)
- Response of gene ARG5,6 (FK506 1.6 μg/ml): 1.1844 standard deviations of Log10(Expression Ratio)
- Response of gene ARO3 (FK506 1.6 μg/ml): 0.2684 standard deviations of Log10(Expression Ratio)
- Response of gene CPA2 (FK506 1.6 μg/ml): 1.2429 standard deviations of Log10(Expression Ratio)
- Response of gene ECM13 (FK506 1.6 μg/ml): 0.5226 standard deviations of Log10(Expression Ratio)
- Response of gene HIS3 (FK506 1.6 μg/ml): 0.71 standard deviations of Log10(Expression Ratio)
- Response of gene HIS5 (FK506 1.6 μg/ml): 0.9802 standard deviations of Log10(Expression Ratio)
- Response of gene MET16 (FK506 1.6 μg/ml): −0.1885 standard deviations of Log10(Expression Ratio)
- Response of gene NCE3 (FK506 1.6 μg/ml): 1.2896 standard deviations of Log10(Expression Ratio)
- Response of gene PCL5 (FK506 1.6 μg/ml): 0.4127 standard deviations of Log10(Expression Ratio)
- Response of gene SNO1 (FK506 1.6 μg/ml): −0.4772 standard deviations of Log10(Expression Ratio)
- Response of gene SNZ1 (FK506 1.6 μg/ml): −0.4772 standard deviations of Log10(Expression Ratio)
- Response of gene SSU1 (FK506 1.6 μg/ml): 0.2883 standard deviations of Log10(Expression Ratio)
- Response of gene YBR047W (FK506 1.6 μg/ml): 0.2806 standard deviations of Log10(Expression Ratio)
- Response of gene YER024W (FK506 1.6 μg/ml): 0.4868 standard deviations of Log10(Expression Ratio)
- Response of gene YGL117W (FK506 1.6 μg/ml): 1.6276 standard deviations of Log10(Expression Ratio)
- Response of gene YGL184C (FK506 1.6 μg/ml): −0.0731 standard deviations of Log10(Expression Ratio)
- Response of gene YHR029C (FK506 1.6 μg/ml): 0.4421 standard deviations of Log10(Expression Ratio)
- Response of gene YMR195W (FK506 1.6 μg/ml): 1.6021 standard deviations of Log10(Expression Ratio)
